Source: ChEMBL document CHEMBL1201862, “PubChem BioAssay data set” (2004)
Several values for one entry are separate records, joined by “and”; a condition that tells them apart may be missing. Equal entries are not always repeated. Activity calls are given as the source filed them.

Tests used:
[1] = biological target: Induced myeloid leukemia cell differentiation protein Mcl-1 (Homo sapiens, UniProt Q07820); format: functional
[2] = biological target: Glyceraldehyde-3-phosphate dehydrogenase (Homo sapiens, UniProt P04406)
[3] = biological target: T1, Alkaline phosphatase, tissue-nonspecific isozyme (Homo sapiens, UniProt P05186); test: human TNAP enzyme inhibitors, SAR follow-up, biochemical, luminescent, dose response (AID 1056)
T1 sequence (P05186 whole entry): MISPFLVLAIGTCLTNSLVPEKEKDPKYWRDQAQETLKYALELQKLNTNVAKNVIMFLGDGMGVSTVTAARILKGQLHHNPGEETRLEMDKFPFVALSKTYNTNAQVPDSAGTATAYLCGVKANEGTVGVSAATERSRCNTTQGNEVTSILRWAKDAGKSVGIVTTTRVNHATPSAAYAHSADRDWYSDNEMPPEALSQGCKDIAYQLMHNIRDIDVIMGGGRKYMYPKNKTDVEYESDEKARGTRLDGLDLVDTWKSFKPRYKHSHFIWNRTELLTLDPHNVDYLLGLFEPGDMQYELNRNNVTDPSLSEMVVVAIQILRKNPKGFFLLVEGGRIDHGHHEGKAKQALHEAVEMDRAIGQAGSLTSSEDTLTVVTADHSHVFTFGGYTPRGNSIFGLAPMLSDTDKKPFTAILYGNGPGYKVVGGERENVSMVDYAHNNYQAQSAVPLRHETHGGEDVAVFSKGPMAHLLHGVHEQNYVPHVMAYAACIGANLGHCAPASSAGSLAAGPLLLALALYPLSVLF

[4] = biological target: Cytochrome P450 3A4 (Homo sapiens, UniProt P08684); details: Potency;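 also: confirmatory qHTS run detecting inhibitors and substrates of CYP3A4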
[5] = biological target: T2, DNA dC->dU-editing enzyme APOBEC-3A (Homo sapiens, UniProt P31941); test: APOBEC3A DNA deaminase inhibitors, dose response, biochemical (AID 504722); format: functional
[6] = biological target: T3, DNA dC->dU-editing enzyme APOBEC-3G (Homo sapiens, UniProt Q9HC16); test: Dose Response confirmation of small molecule APOBEC3G DNA Deaminase Inhibitors via a fluorescence-based single-stranded DNA deaminase assay. [Related pubchem assays (depositor defined):AID493012, AID493028]; format: functional
[7] = biological target: T2, DNA dC->dU-editing enzyme APOBEC-3A; test: Dose Response confirmation of small molecule APOBEC3A DNA Deaminase Inhibitors via a fluorescence-based single-stranded DNA deaminase assay. [Related pubchem assays (depositor defined):AID493011, AID493024]; format: functional
[8] = biological target: T3, DNA dC->dU-editing enzyme APOBEC-3G; format: functional
[9] = Luminescence Cell-Based Dose Response HTS to Identify Activators of Luciferase Translation or Activity in H4 […] Cells. [Related pubchem assays: 1829 (Project Summary), 1814 (Primary HTS)]; format: functional
[10] = biological target: Beta-galactosidase (Escherichia coli, UniProt Q8VNN2); test: Dose response counterscreen for EBI2 assay utilizing the enzyme, b-galactosidase.; format: functional
[11] = tested on: H4; test: Luminescence Cell-Based Dose Response HTS to Identify Activators of 5'UTR Stem-Loop Driven Prion Protein mRNA Translation in H4 Neuroglioblastoma Cells. [Related pubchem assays: 1829 (Project Summary), 1814 (Primary HTS)]; format: functional; details: Homo sapiens
[12] = Luminescence Cell-Based Dose Response to Identify Activators of 5'UTR Stem-Loop Driven Prion Protein mRNA Translation in H4-C Neuroglioblastoma Cells. [Related pubchem assays: 1829 (Project Summary), 1814 (Primary HTS)]; format: functional
[13] = Luminescence Cell-Based Dose Confirmation to Identify Activators of 5'UTR Stem-Loop Driven Alpha-Synuclein mRNA Translation in H4 Neuroglioblastoma Cells. [Related pubchem assays: 1829 (Project Summary), 1814 (Primary HTS)]; format: functional
[14] = Luminescence Cell-Based Dose Response to Identify Activators of Luciferase Translation or Activity in H4-C Neuroglioblastoma Cells. [Related pubchem assays: 1829 (Project Summary), 1814 (Primary HTS)]; format: functional
[15] = cells; format: functional, cell-based
[16] = cells; format: functional, cell-based; remark: listed apart in the source
[17] = biological target: Troponin, cardiac muscle (Homo sapiens, UniProt P19429+P45379+P63316); test: Fluorescence-based biochemical high throughput dose response assay for activators of the calcium sensitivity of cardiac Regulated Thin Filaments (RTF). [Related pubchem assays (depositor defined):AID493008, AID493018, AID504382, AID504383]; format: protein-complex assay
[18] = biological target: T4, Galanin receptor type 3 (Homo sapiens, UniProt O60755); test: Fluorescence-based cell-based primary high throughput dose response assay to identify antagonists of the Galanin Receptor 3 (GalR3).; format: functional
T4 sequence (O60755 whole entry): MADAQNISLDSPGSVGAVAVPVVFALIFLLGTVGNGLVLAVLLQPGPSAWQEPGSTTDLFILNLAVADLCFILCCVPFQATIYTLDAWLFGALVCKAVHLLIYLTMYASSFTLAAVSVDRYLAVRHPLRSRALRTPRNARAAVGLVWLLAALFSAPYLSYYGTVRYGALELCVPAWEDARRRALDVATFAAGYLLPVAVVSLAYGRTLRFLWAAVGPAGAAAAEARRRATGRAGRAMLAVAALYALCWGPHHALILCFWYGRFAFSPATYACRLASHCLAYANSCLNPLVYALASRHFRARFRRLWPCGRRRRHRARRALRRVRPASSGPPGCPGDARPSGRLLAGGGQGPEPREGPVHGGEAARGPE

[19] = biological target: Cytochrome P450 2D6 (Homo sapiens, UniProt P10635);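 also: CYP2D6 member of a cytochrome P450 panel assay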
[20] = cells; format: functional, cell-based; details: HEK-CNG
[21] = cells; format: functional
[22] = THP-1 cell cytotoxicity, dose response, cytotoxicity control for non-replicating M. tuberculosis project (AID 489025); format: functional
[23] = biological target: Prothrombin (Homo sapiens, UniProt P00734); test: Thrombin 1536 HTS Dose Response Confirmation. [Related pubchem assays: 1046 (Thrombin 1536 HTS; hits were confirmed in this assay)]; format: functional
[24] = cytotoxicity in HEK-293T cells, dose response, cytotoxicity control for BCR NF-kB inhibitor project, luminescence, B-cell screen hits (AID 489021); format: functional, cell-based;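 also: HEK-293T cells carrying an NF-kB luciferase reporter; cells exposed to compound for about 14 hours before viability readout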
[25] = biological target: T5, DNA repair protein RAD52 homolog (Homo sapiens, UniProt P43351); format: functional, biochemical
T5 sequence (P43351 whole entry): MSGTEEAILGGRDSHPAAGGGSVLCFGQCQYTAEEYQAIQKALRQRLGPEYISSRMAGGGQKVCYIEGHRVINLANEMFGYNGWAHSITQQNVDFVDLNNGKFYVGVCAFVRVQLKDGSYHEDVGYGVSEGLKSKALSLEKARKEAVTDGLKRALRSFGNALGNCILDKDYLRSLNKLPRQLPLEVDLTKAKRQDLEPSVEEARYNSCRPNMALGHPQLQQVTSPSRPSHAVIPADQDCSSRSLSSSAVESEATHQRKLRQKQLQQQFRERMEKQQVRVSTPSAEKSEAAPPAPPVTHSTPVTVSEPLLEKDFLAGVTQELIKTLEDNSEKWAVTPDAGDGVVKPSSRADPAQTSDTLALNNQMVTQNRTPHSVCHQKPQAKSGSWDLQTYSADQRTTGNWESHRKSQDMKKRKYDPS

[26] = Luminescence Cell-Based Dose Confirmation HTS to Identify Activators of 5'UTR Stem-Loop Driven Alpha-Synuclein mRNA Translation in H4 Neuroglioblastoma Cells. [Related pubchem assays: 1829 (Project Summary), 1814 (Primary HTS)]; format: functional

T3 sequence (Q9HC16 whole entry): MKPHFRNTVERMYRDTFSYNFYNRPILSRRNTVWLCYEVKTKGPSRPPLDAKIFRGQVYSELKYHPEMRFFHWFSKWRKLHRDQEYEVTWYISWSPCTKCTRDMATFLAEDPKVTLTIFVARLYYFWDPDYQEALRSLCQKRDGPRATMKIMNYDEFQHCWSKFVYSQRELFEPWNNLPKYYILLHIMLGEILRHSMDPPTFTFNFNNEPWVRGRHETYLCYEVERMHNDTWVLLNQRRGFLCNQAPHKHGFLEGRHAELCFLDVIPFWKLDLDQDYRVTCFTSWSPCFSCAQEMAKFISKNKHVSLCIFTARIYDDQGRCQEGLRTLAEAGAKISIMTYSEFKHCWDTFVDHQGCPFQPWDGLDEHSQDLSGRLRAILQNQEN
Sequence of Cytochrome P450 3A4 (P08684 whole entry): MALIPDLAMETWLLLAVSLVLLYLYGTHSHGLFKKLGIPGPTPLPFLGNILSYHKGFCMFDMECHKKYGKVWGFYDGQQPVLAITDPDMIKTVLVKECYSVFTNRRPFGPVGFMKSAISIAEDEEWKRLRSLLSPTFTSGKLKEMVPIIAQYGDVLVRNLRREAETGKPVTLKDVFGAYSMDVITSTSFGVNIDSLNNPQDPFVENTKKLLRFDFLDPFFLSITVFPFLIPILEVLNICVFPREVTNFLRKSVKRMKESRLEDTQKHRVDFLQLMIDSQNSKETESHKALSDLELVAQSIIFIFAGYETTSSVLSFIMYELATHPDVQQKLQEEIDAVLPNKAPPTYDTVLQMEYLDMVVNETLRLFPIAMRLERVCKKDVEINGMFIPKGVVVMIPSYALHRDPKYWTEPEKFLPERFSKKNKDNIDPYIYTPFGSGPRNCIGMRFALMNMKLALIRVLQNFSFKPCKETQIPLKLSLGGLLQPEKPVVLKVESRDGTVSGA
T2 sequence (P31941 whole entry): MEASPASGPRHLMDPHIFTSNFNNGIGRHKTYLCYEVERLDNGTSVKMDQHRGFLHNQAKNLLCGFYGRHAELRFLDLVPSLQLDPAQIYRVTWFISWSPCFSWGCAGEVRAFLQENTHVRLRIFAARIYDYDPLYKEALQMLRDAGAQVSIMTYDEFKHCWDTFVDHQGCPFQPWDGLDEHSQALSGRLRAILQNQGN
Sequence of Beta-galactosidase (Q8VNN2 whole entry): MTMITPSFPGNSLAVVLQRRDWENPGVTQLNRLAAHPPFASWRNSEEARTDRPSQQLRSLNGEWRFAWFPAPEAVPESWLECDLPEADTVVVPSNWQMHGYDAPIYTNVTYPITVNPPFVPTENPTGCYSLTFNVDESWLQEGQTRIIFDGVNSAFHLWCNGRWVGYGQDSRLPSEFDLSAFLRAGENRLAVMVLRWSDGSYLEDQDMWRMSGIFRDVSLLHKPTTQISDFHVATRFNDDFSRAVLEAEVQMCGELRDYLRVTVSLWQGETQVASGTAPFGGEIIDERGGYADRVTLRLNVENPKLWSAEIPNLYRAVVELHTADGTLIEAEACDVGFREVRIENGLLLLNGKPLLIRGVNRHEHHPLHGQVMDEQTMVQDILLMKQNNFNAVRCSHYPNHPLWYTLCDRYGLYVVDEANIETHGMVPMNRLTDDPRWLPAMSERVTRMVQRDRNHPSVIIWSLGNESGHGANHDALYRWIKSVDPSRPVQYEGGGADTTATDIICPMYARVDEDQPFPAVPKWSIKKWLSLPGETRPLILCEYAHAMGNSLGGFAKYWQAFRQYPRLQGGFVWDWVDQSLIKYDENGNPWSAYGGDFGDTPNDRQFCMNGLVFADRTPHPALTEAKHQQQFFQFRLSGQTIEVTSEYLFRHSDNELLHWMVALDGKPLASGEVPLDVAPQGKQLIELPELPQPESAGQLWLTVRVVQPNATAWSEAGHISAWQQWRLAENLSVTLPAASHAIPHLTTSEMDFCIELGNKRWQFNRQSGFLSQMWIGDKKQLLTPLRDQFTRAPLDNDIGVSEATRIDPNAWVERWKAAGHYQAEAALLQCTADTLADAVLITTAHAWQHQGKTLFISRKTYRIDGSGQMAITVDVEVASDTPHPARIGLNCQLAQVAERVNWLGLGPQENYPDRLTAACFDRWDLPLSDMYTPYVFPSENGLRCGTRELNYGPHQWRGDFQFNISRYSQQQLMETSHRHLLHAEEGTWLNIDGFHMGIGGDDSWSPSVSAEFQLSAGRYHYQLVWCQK
Sequence of Glyceraldehyde-3-phosphate dehydrogenase (P04406 whole entry): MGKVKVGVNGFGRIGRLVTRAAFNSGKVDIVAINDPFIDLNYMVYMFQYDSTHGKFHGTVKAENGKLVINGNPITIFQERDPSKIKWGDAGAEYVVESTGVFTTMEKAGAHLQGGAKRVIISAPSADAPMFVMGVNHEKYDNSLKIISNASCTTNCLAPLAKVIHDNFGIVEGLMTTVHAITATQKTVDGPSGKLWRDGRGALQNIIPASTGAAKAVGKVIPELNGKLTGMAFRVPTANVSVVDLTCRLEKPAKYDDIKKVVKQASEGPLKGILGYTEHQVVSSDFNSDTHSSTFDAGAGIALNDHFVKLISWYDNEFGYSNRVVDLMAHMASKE
Sequence of Induced myeloid leukemia cell differentiation protein Mcl-1 (Q07820 whole entry): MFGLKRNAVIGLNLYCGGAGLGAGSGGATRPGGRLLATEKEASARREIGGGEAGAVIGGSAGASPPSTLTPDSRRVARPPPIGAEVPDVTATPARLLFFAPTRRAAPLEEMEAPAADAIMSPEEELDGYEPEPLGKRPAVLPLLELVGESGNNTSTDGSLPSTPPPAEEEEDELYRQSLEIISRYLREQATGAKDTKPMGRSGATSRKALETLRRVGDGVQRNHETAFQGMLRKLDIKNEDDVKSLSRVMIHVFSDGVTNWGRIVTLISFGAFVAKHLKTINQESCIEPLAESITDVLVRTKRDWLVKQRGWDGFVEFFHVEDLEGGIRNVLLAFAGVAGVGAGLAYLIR
Sequence of Cytochrome P450 2D6 (P10635 whole entry): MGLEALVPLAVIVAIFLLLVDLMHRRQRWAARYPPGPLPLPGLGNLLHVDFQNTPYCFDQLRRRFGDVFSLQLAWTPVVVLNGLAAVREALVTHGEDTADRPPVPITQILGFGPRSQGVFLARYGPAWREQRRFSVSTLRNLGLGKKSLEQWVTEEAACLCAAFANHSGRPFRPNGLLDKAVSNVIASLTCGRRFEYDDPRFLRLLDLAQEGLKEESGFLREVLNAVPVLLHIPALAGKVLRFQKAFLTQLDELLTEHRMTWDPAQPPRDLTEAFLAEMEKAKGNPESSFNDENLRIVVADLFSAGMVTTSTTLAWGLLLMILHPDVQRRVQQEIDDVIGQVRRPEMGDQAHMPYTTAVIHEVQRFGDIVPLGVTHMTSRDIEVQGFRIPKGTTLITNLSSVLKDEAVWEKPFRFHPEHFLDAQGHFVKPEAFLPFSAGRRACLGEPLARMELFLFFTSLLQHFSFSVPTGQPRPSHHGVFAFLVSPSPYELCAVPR

Cn1c(SCC(=O)Nc2ccc3nc(SCC(=O)N4CCCC4)sc3c2)nnc1-c1ccccc1
IC50 [1]: 2.83 µM (active)

O=S(=O)(Nc1cnc2ccccc2c1)c1ccc(Br)cc1OC(F)(F)F
IC50 [2]: > 100 µM (not active)
IC50 [3]: 1.5 µM (active)

CCCCC/C=C\C/C=C\C/C=C\C/C=C\CCCC(=O)O [ARACHIDONIC ACID]
AC50 [4]: 39.8 µM (inconclusive) and 7.94 µM (inconclusive)

Nn1c(COc2ccc(Cl)cc2)n[nH]c1=S
IC50 [5]: > 100 µM (inactive)
IC50 [6]: 2.49 µM (active)

Fc1ccccc1/C=N/n1c(S)nnc1-c1cccnc1
IC50 [5]: > 100 µM (inactive)
IC50 [6]: 3.16 µM (active)

C[N+](C)(C)CCOC(=O)C1(c2ccccc2)CCCC1
IC50 [7]: 1.06 µM (active)
IC50 [8]: 1.12 µM (active)

CCN1CCN(C(=O)c2cc3c(s2)-c2c(C)cccc2OC3)CC1
EC50 [9]: 5.32 µM (active)
IC50 [10]: > 80 µM (inactive)
EC50 [11]: 9.85 µM (active)

Fc1ccc(/C=N/NC2=Nc3cccc4cccc2c34)cc1
EC50 [12]: 0.233 µM (active)
EC50 [9]: < 0.1 µM (inconclusive)
EC50 [13]: 0.278 µM (active)
EC50 [11]: < 0.1 µM (active)
EC50 [14]: 0.343 µM (active)

O=[N+]([O-])c1[nH]cnc1/C=C/c1ccccc1
EC50 [15]: > 29.9 µM (inactive)
IC50 [16]: > 29.9 µM (inactive)

COc1cccc(/C=C/C(=O)N2CCN(S(=O)(=O)c3ccccc3)CC2)c1
IC50 [10]: > 80 µM (inactive)

CN(CC(=O)NCc1ccco1)S(=O)(=O)c1cccc2cccnc12
EC50 [17]: > 71.5 µM (inactive)

CO/C(O)=C1\C(C)=NC2=C(C(=O)CCC2)C1c1cn(Cc2ccc(Cl)cc2Cl)nc1-c1ccccc1 (stereo unspecified)
IC50 [18]: 3.85 µM (active)
AC50 [19]: 3.55 µM (inconclusive)
EC50 [20]: > 29.9 µM (inactive)

Cc1ccc(/C=N/n2c(S)nnc2-c2ccncc2)o1
IC50 [5]: > 100 µM (inactive)
IC50 [6]: 6.55 µM (active)

Cc1ccccc1OCCNc1cc(N2CC(C)NC(C)C2)ccc1[N+](=O)[O-] (stereo unspecified)
IC50 [21]: 12.8 µM (active)
CC50 [22]: 21.4 µM (active)

Fc1ccc(Oc2cnc3ccccc3n2)cc1
IC50 [23]: > 50 µM (not active)

COc1cccc(C(=O)N/N=C/c2ccc(Oc3ccc([N+](=O)[O-])cn3)c(OC)c2)c1
IC50 [7]: 3.44 µM (active)
IC50 [8]: 3.84 µM (active)

CCN(CC)c1ccc(/C=C2/C(=O)ON=C2C)cc1
IC50 [24]: > 80 µM (inactive)

Cn1c(=O)c2c(SCC(=O)Nc3ccccc3F)nc(-c3ccccc3F)nc2n(C)c1=O
IC50 [24]: > 80 µM (inactive)

Cc1c(C)n(C)c2ccc(C(=O)NCCCN3CCN(C)CC3)cc12
AC50 [25]: 7.04 µM (active)

Cc1ccc(NC(=O)C2CCCN(c3ncccn3)C2)cc1F (stereo unspecified)
EC50 [12]: 1.22 µM (active)
EC50 [9]: 0.125 µM (inconclusive)
EC50 [13]: 0.141 µM (active)
EC50 [26]: < 0.1 µM (active)
EC50 [11]: 6.45 µM (active)
EC50 [14]: 0.856 µM (active)

Cc1c(C(=O)N2CCc3ccccc3C2)oc2ccc(S(=O)(=O)N3CC(C)CC(C)C3)cc12 (stereo unspecified)
EC50 [15]: > 29.9 µM (inactive)
IC50 [16]: > 29.9 µM (inactive)

COCCNc1nc(C)nc2c1nc(-c1ccccc1)n2CCN1CCCC1
AC50 [4]: 25.1 µM (inconclusive)

COc1ccc(-c2nn(C)c(=O)c3ccccc23)cc1CNC(=O)C1CCCCC1
IC50 [23]: > 50 µM (not active)

O=C(c1cc2cc(Cl)ccc2[nH]1)N1CCC2(CC1)OCCO2
IC50 [10]: > 80 µM (inactive)

CCN(CC)c1ccc(NC(=O)c2cncc(Br)c2)cc1
EC50 [12]: > 12 µM (not active)
EC50 [9]: 1.48 µM (active)
EC50 [13]: 0.53 µM (active)
EC50 [11]: 14.3 µM (active)
EC50 [14]: > 12 µM (not active)

Cc1ccc(S(=O)(=O)Nc2ccc3ccccc3c2)cc1
IC50 [2]: > 100 µM (not active)
IC50 [3]: > 100 µM (inactive)

O=C(/C=C/c1ccc(Cl)cc1)N1CCN(c2ccccn2)CC1
IC50 [10]: > 80 µM (inactive)

Nc1cccc2ccccc12
AC50 [4]: 31.6 µM (inconclusive)

CSC1=N/C(=C\c2ccc(C)o2)C(=O)S1
IC50 [23]: > 50 µM (not active)
